#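 Protocol summary: plate cells (96-well), add compound at 5 concentrations, incubate 48 h, interpolate endpoints linearly. At the GI50, growth is halved. TGI marks complete inhibition of growth.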
# Columns and labels:
# Test in all cases: NCI tumour cell line growth inhibition, 48 h
# MCF7 breast = system: MCF7 breast
# CCRF-CEM leukemia = system: CCRF-CEM leukemia
# UACC-62 melanoma = system: UACC-62 melanoma
# A549 NSCLC = system: A549 NSCLC
# BT-549 breast = system: BT-549 breast
# SK-MEL-2 melanoma = system: SK-MEL-2 melanoma
# K-562 leukemia = system: K-562 leukemia
# UO-31 renal = system: UO-31 renal
# OVCAR-4 ovarian = system: OVCAR-4 ovarian
# UACC-257 melanoma = system: UACC-257 melanoma
# HOP-62 NSCLC = system: HOP-62 NSCLC
# NCI-H460 lung = system: NCI-H460 lung
# 786-0 renal = system: 786-0 renal
# HCC-2998 colon = system: HCC-2998 colon
# SK-MEL-28 melanoma = system: SK-MEL-28 melanoma
# SW-620 colon = system: SW-620 colon
# SNB-75 CNS = system: SNB-75 CNS
# HOP-92 NSCLC = system: HOP-92 NSCLC
# NCI-H23 lung = system: NCI-H23 lung
# IGROV1 ovarian = system: IGROV1 ovarian
# DU-145 prostate = system: DU-145 prostate
# OVCAR-5 ovarian = system: OVCAR-5 ovarian
# TK-10 renal = system: TK-10 renal
# HL-60(TB) leukemia = system: HL-60(TB) leukemia
# SN12C renal = system: SN12C renal
# CAKI-1 renal = system: CAKI-1 renal
# RPMI-8226 leukemia = system: RPMI-8226 leukemia
# T-47D breast = system: T-47D breast
# KM12 colon = system: KM12 colon
# PC-3 prostate = system: PC-3 prostate
smiles,measurement,setting,value
O=C(N/C(=C1/OCCN1Cc1ccccc1)[P+](c1ccccc1)(c1ccccc1)c1ccccc1)c1ccccc1,GI50,MCF7 breast,2.71 µM
same,TGI,MCF7 breast,11.3 µM
same,GI50,CCRF-CEM leukemia,3.84 µM
same,TGI,CCRF-CEM leukemia,29.9 µM
same,GI50,UACC-62 melanoma,2.05 µM
same,TGI,UACC-62 melanoma,6.71 µM
same,GI50,A549 NSCLC,15.1 µM
same,TGI,A549 NSCLC,54.4 µM
same,GI50,BT-549 breast,2.47 µM
same,TGI,BT-549 breast,8.75 µM
same,GI50,SK-MEL-2 melanoma,2.36 µM
same,TGI,SK-MEL-2 melanoma,6.08 µM
same,GI50,K-562 leukemia,2.08 µM
same,TGI,K-562 leukemia,> 100 µM
same,GI50,UO-31 renal,15.5 µM
same,TGI,UO-31 renal,29.1 µM
same,GI50,OVCAR-4 ovarian,5 µM
same,TGI,OVCAR-4 ovarian,21.8 µM
same,GI50,UACC-257 melanoma,2.22 µM
same,TGI,UACC-257 melanoma,5.97 µM
same,GI50,HOP-62 NSCLC,11.3 µM
same,TGI,HOP-62 NSCLC,25 µM
same,GI50,NCI-H460 lung,3.71 µM
same,TGI,NCI-H460 lung,14.6 µM
same,GI50,786-0 renal,10.7 µM
same,TGI,786-0 renal,23.8 µM
same,GI50,HCC-2998 colon,2.68 µM
same,TGI,HCC-2998 colon,9.86 µM
same,GI50,SK-MEL-28 melanoma,3.75 µM
same,TGI,SK-MEL-28 melanoma,14.9 µM
same,GI50,SW-620 colon,4.51 µM
same,TGI,SW-620 colon,17.1 µM
same,GI50,SNB-75 CNS,1.62 µM
same,TGI,SNB-75 CNS,10.7 µM
same,GI50,HOP-92 NSCLC,1.99 µM
same,TGI,HOP-92 NSCLC,7.37 µM
same,GI50,NCI-H23 lung,3.16 µM
same,TGI,NCI-H23 lung,13.3 µM
same,GI50,IGROV1 ovarian,2.47 µM
same,TGI,IGROV1 ovarian,9.71 µM
same,GI50,DU-145 prostate,4.46 µM
same,TGI,DU-145 prostate,17.4 µM
same,GI50,OVCAR-5 ovarian,13.5 µM
same,TGI,OVCAR-5 ovarian,26.8 µM
same,GI50,TK-10 renal,4.06 µM
same,TGI,TK-10 renal,16.8 µM
same,GI50,HL-60(TB) leukemia,1.78 µM
same,TGI,HL-60(TB) leukemia,5.46 µM
same,GI50,SN12C renal,3.34 µM
same,TGI,SN12C renal,11.7 µM
same,GI50,CAKI-1 renal,5.76 µM
same,TGI,CAKI-1 renal,21.7 µM
same,GI50,RPMI-8226 leukemia,1.14 µM
same,TGI,RPMI-8226 leukemia,3.94 µM
same,GI50,T-47D breast,2.41 µM
same,TGI,T-47D breast,12.9 µM
same,GI50,KM12 colon,3.4 µM
same,TGI,KM12 colon,11.9 µM
same,GI50,PC-3 prostate,3.77 µM
